The record followed here is patent US7019000B1, “Method of treating a disease condition caused or exacerbated by an HPV” (Institute of Molecular & Cell Biology, priority 1998, dated 2006).

Structures are written as SMILES.

The subject of assay [1] is HPV containing cell lines as HeLa, SiHa and Caski, compared to HPV-negative cell lines MCF7, HEPG2, (HaCat, HT3, 444). The assay can be described thus: Cell viability (WST1 assay), panel of HPV-positive and HPV-negative cell lines. The assay is classed as cell-based, human. Particulars: for WST1: 50 μM in cell culture; for WST1-spec: 50 μM, HPV containing vs HPV-negative cell lines. As to the method: Zinc finger proteins are required for maintenance of cell viability. Preferably, the compounds for use in the present invention are specific in their ability to affect the viability of MPV containing cells, with little or no cytotoxic effects on the cellular functioning of healthy non-MPV containing cells. The viability of MPV-infected cells (and non infected cells) in the presence of compounds of Formulae (I) or (II) can be measured by incubating with the tetrazolium salt WST1 (Roche Molecular Biochemicals, Manneheim Germany) and measuring the absorption readings thereof (WST1 assay).
All cell lines were obtained from the American Type Culture Collection (Manassas, Va.) unless otherwise noted. SiHa (human cervical epithelial tumor line, HPV16-positive), CaSki (human cervical epithelial tumor line, HPV16-positive), HaCat (immortalized human skin epithelial cell line, HPV-negative), HeLa (human cervical epithelial tumor line, HPV18-positive), 444 (hybrid of HeLa and fibroblast, HPV18-positive) obtained from Eric Stanbridge (Universitv of California, Irvine), MCF7 (human mammary epithelial tumor cell line, HPV-negative), HT3 (human cervical epithelial tumor cell line, HPV-negative) was obtained from the German Cancer Research Institute/DKFZ-Heidelberg, and HepG2, (human liver epithelial tumor cell line, HPV-negative), were grown in Dulbecco's modified Eagle medium (DMEM) supplemented with 10% fetal calf serum, 100 U penicillin and 1000 U streptomycin. Cells were allowed to attach to the surface of microwell dishes overnight and subsequently, incubated with medium containing the zinc ejecting compounds at the concentrations (10–100 μM). Viability of the cells was scored by measuring the absorption of the tetrazolium salt WST1 (Roche Molecular Biochemicals, Mannheim, Germany) in an Elisa-plate reader (Tecan, Salzburg, Austria) at a wavelength of 450 nm and a reference wavelength of 630 nm.
A total of 10 000 cells per well were plated on 24 well plates, after attachment overnight, they were treated 3 times in 3 days with C16 at 10 μM and 50 μM. The activity of C16 was also compared with that of C4 (azodicarbonamide) which causes ejection of zinc from HIV-1 NCp7 and is currently used in clinical trials for the treatment of AIDS.

Assay [2] addresses T1, HPV-16-E6 (recombinant GST-E6 protein) (Human papillomavirus type 16, UniProt P03126).
T1 construct: The full length HPV16 E6 gene was amplified via polymerase chain reaction and cloned in the vector pGeX4T2; made in house; host or cells: E. coli strain AB1899
The assay can be described thus: biochemical. The assay is classed as biochemical. Particulars: read-out: TSQ % (% values of Zinc release). An excerpt: Where the chelated metal is zinc, zinc release can be measured as an increase in the fluorescence of the zinc-selective fluorophore TSQ (N-(6-methoxy-8-quinolyl)-p-toluenesulfonamide) (18) in the presence of the protein and the active compound (TSQ assay).
In such an assay, the increase in fluorescence measured can be described as a percentage of the increase in fluorescence observed for a positive control compound which provides 100% zinc release. A suitable positive control compound is H2O2. Preferred compounds which may be useful in the present invention are those which release at least 30% of the chelated zinc as measured by the TSQ assay. Particularly preferred compounds for use in the present invention are those which release at least 40% of the chelated zinc, more preferably at least 50%.
In earlier studies, reduced glutathione (GSH) was required to elute recombinant glutathione sulfhydryl transferase E6 (recombinant (GST-E6)) protein during the purification process. However, the reducing activity of the GSH sulfhydryl groups protected GST-E6 protein from the chemical attack by agents, such as the disulphide based organic compounds of Formula (I) and (II). […] Individual assays were done in the presence of 9 μg GST-E6 protein, corresponding to a concentration of 1 μM GST-E6 protein and 2 μM bound zinc, assuming the presence of two Zn ions per protein.
Release of zinc from HPV-16-E6 was monitored by the change in fluorescence of the zinc-selective fluorophore TSQ (N-6-methoxy-8-quinolyl)-p-toluenesulfonamide), (Molecular Probes, Eugene, Oreg.) by modification of published procedures (25, 26, 27). In a total reaction volume of 200 μl, 9 μg (1 μM) recombinant GST-E6 protein (corresponding to a concentration of 1 μM), bound to glutathione-sepharose beads, were incubated with 10 μM of each compound or 0.6% (170 mM) H2O2 in TSQ-assay buffer (10 mM sodium phosphate buffer pH7.0, 10% glycerol) for 2 hours at room temperature (200 μl total volume in 96-well plates). Immediately after addition of 100 μM TSQ, the increase in fluorescence was measured on a SLT Fluostar (355 nm excitation filter and 460 nm emission filter, Tecan, Salzburg).
Values given are % values of Zinc release. The relative fluorescence units (RFU) were normalized to the amount of zinc released by H2O2 (regarded as 100%). The concentration of compound used was 10 μM for C27–C35, 13 μM for C37–C83, H2O2 was used at 0.3% for C27–C35 and 0.2% for C37–C83.

Assay [3] has as its target T2, binding of E6 with E6AP and E6BP (Human papillomavirus type 16, UniProt P03126).
T2 construct: The full length HPV16 E6 gene was amplified via polymerase chain reaction and cloned in the vector pGeX4T2; made in house; host or cells: E. coli strain AB1899
Further details: species or system HPV-16. Particulars: for BIACORE (E6BP/E6AP): 400 μM compound, 2 hrs at room temperature, GST-E6 7 μM in 10 mM GSH; for complex formation of GST-E6 with GST-E6AP/GST-E6BP, controls: 5 mM EDTA or 0.6% (170 mM) H2O2, 2 hrs at room temperature. An excerpt:
BIACORE allows real time analysis of bimolecular interactions without the need for isotopic or enzymatic labelling. BIACORE technology is based on the optical surface plasmon resonance (SPR), a technique that allows for detecting small changes in the refractive index on the surface of a thin gold film coated with a dextran matrix. Typically, one of the binding partners (termed the ligand) is covalently linked to the dextran matrix, while the other partner (termed the analyte) is introduced in a flow passing over the surface. The change in refractive index resulting from the interaction of the molecules is expressed in resonance units (RU): a SPR response of 1000 RU corresponds to a change of the surface concentration of the analyte of 1 ng protein/mm^2. GST-E6AP and GST-E6BP were used as ligands and GSTE6 was used as the analyte. […] Further controls included using the dextran matrix alone or GST as the ligand.
Binding of GST-E6 to GST-E6BP, GST-E6AP and GST was monitored by surface plasmon resonance (SPR) on a BIACORE 2000 machine (Biacore AB, Uppsala, Sweden). […] Typically 6000–10000 RU of GST, E6BP and E6AP were immobilized on three difference flowcells. Aliquots of purified HPV-16 GST-E6 (7 μM in 10 mM GSH, 50 mM Tris/PBS buffer, pH 8.2) were incubated with either 400 μM compound, or 5 mM EDTA, or 0.6% (170 mM) H2O2 for 2 hrs at room temperature. Then 10 μl of sample was injected at 1 μl/min over the three immobilized ligands using the sequential flow mode. The interactions between GST-E6 and ligands were monitored by the change of resonance signal in arbitrary units (RU).

T2 sequence (P03126 whole entry): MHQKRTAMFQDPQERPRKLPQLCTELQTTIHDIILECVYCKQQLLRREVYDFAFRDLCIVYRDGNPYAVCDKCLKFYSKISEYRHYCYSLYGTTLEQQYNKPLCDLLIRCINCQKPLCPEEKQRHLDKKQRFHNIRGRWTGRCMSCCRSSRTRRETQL
T1 sequence (P03126 whole entry): as above

On to `NC(=O)N=NC(N)=O` [Compound C4, azodicarbonamide, reference compound], for which the growth inhibition entry in assay [1] (any of these six cell lines (FIG. 3)) is “did not cause growth inhibition”.
With `O=C1c2ccccc2C(=O)N1SSN1C(=O)c2ccccc2C1=O` [Compound C27], the activation at 10 µM in assay [2] worked out at 103%. Besides, the “BIACORE (E6BP/E6AP)” value in assay [3] is “+ (compound interferes in binding of E6 with E6AP and E6BP, binding is less than 50% of the corresponding E6-DMSO value.)”. In addition, the WST1 result in assay [1] was “+”.
In the case of `S=C(SSC(=S)N1CCOCC1)N1CCOCC1` [Compound C32], the activation at 10 µM in assay [2] was 80.9%. Further, the “BIACORE (E6BP/E6AP)” value in assay [3] was “+ (compound interferes in binding of E6 with E6AP and E6BP, binding is less than 50% of the corresponding E6-DMSO value.)”.
As to `CN1CCCN(C(=S)SSC(=S)N2CCCN(C)CC2)CC1` [Compound C35], in assay [2], the activation at 10 µM was 106%. Besides, in assay [1], the WST1 entry is on record as “+”.
Take `CC1CN(SSN2CC(C)OC(C)C2)CC(C)O1` (centres unmarked) [Compound C37]: the activation at 13 µM in assay [2] came out at 40.3%. In addition, in assay [3], the “BIACORE (E6BP/E6AP)” value was “+ (compound interferes in binding of E6 with E6AP and E6BP, binding is less than 50% of the corresponding E6-DMSO value.)”. Moreover, in assay [1], the WST1 result is listed as “+” and the WST1-spec entry was “+”.
As for `C1CN(SSN2CCSCC2)CCS1` [Compound C38], the activation at 13 µM in assay [2] was 41.8%. In addition, the “BIACORE (E6BP/E6AP)” value in assay [3] was “+ (compound interferes in binding of E6 with E6AP and E6BP, binding is less than 50% of the corresponding E6-DMSO value.)”. In assay [1], the WST1 entry is “+” and the WST1-spec result is recorded as “+”.
With `CN1CCN(SSN2CCN(C)CC2)CC1` [Compound C39], the activation at 13 µM in assay [2] amounted to 45%. In assay [3], the “BIACORE (E6BP/E6AP)” value is “+ (compound interferes in binding of E6 with E6AP and E6BP, binding is less than 50% of the corresponding E6-DMSO value.)”. Also, in assay [1], the WST1 result is “+” and the WST1-spec entry is on record as “+”.
Consider `CCOC(=O)N1CCN(SSN2CCN(C(=O)OCC)CC2)CC1` [Compound C41], for which the activation at 13 µM in assay [2] stood at 36.8%. In addition, the “BIACORE (E6BP/E6AP)” value in assay [3] was “+ (compound interferes in binding of E6 with E6AP and E6BP, binding is less than 50% of the corresponding E6-DMSO value.)”. Further, in assay [1], the WST1 result was “+” and the WST1-spec entry was “+”.
In the case of `C1CCN(SSN2CCCC2)C1` [Compound C42], the activation at 13 µM in assay [2] came out at 50.5%. Moreover, the “BIACORE (E6BP/E6AP)” value in assay [3] was “+ (compound interferes in binding of E6 with E6AP and E6BP, binding is less than 50% of the corresponding E6-DMSO value.)”. The WST1 result in assay [1] was “+”.
`C1CCN(SSN2CCCCC2)CC1` [Compound C48]: the activation at 13 µM in assay [2] amounted to 54.3%. Also, the “BIACORE (E6BP/E6AP)” value in assay [3] was “+ (compound interferes in binding of E6 with E6AP and E6BP, binding is less than 50% of the corresponding E6-DMSO value.)”. For the same molecule, in assay [1], the WST1 entry is listed as “+” and the WST1-spec entry was “+”.
For the molecule `CCN(CC)SSN(CC)CC` [Compound C49], in assay [2], the activation at 13 µM came out at 57%. Moreover, the “BIACORE (E6BP/E6AP)” value in assay [3] is “+ (compound interferes in binding of E6 with E6AP and E6BP, binding is less than 50% of the corresponding E6-DMSO value.)”. Moreover, the WST1 result in assay [1] is reported as “+”.
As for `c1ccc(N2CCN(SSN3CCN(c4ccccn4)CC3)CC2)nc1` [Compound C55], the activation at 13 µM in assay [2] amounted to 50.6%. The “BIACORE (E6BP/E6AP)” value in assay [3] was “+ (compound interferes in binding of E6 with E6AP and E6BP, binding is less than 50% of the corresponding E6-DMSO value.)”. In addition, in assay [1], the WST1 result was “+” and the WST1-spec entry was “+”.
In the case of `O=[N+]([O-])c1ccc(N2CCN(SSN3CCN(c4ccc([N+](=O)[O-])cc4)CC3)CC2)cc1` [Compound C69], the activation at 13 µM in assay [2] came out at 0%. Besides, the “BIACORE (E6BP/E6AP)” value in assay [3] was “+ (compound interferes in binding of E6 with E6AP and E6BP, binding is less than 50% of the corresponding E6-DMSO value.)”.
With `COc1ccc(N2CCN(SSN3CCN(c4ccc(OC)cc4)CC3)CC2)cc1` [Compound C71], in assay [2], the activation at 13 µM was 0%. Also, in assay [1], the WST1 entry is “+” and the WST1-spec entry is “+”.
Turning to `CC1(C)COCN1SSN1COCC1(C)C` [Compound C82], the activation at 13 µM in assay [2] turned out to be 28.4%. For the same molecule, the “BIACORE (E6BP/E6AP)” value in assay [3] is “+ (compound interferes in binding of E6 with E6AP and E6BP, binding is less than 50% of the corresponding E6-DMSO value.)”. In addition, in assay [1], the WST1 entry is recorded as “+”.
Regarding `CCOC(=O)CN(Cc1ccccc1)SSN(CC(=O)OCC)Cc1ccccc1` [Compound C83], the activation at 13 µM in assay [2] stood at 22%. Besides, the “BIACORE (E6BP/E6AP)” value in assay [3] is “+ (compound interferes in binding of E6 with E6AP and E6BP, binding is less than 50% of the corresponding E6-DMSO value.)”. Also, in assay [1], the WST1 entry is “+”.
Regarding `OO` [Compound H2O2, H2O2, reference compound], the “complex formation of GST-E6 with GST-E6AP/GST-E6BP, controls” value in assay [3] was “completely eliminated complex formation”.
`C1CN1SSN1CC1` [Compound R24]: the activation at 10 µM in assay [2] is 71%. The “BIACORE (E6BP/E6AP)” value in assay [3] is “+ (compound interferes in binding of E6 with E6AP and E6BP, binding is less than 50% of the corresponding E6-DMSO value.)”. In addition, the WST1 result in assay [1] was “+”.
Take `CC1CN1SSN1CC1C` (centres unmarked) [Compound R25]: the activation at 10 µM in assay [2] was 30.9%. Besides, the “BIACORE (E6BP/E6AP)” value in assay [3] is “+ (compound interferes in binding of E6 with E6AP and E6BP, binding is less than 50% of the corresponding E6-DMSO value.)”.
For the molecule `O=C(O)CN(CCN(CC(=O)O)CC(=O)O)CC(=O)O` [EDTA, reference compound], in assay [3], the “complex formation of GST-E6 with GST-E6AP/GST-E6BP, controls” value was “completely eliminated complex formation”.
